In patent US20150164762A1, “USE OF ETHANOLAMINE PHOSPHATE” (priority 2012, published 2015):
Where two headings read alike, the source gives them in different places.

What was measured:
BEAS-2B [1] = experiment: Proliferation test with GABA receptor agonists and GABA-A antagonist (WST-8); type: cell-based, human; details: 0.1% FBS, 72 hours
Procedure: […] […] Next, 10 μl per well of GABA (GABA-A and GABA-B receptor agonist) and homotaurine (GABA-A agonist) were added. A proliferation test (WST-8 assay) was performed after 72 hours.
[…] […] 10 μl per well of EP solution was added. A proliferation test (WST-8 assay) was performed after 72 hours.

BEAS-2B [2] = experiment: Proliferative effects of EP and its metabolic derivatives (WST-8); type: cell-based, human
BEAS-2B [3] = experiment: Cell toxicity of H2O2 after EP pre-treatment (WST-8 assay); type: cell-based, human; details: Homo sapiens, BEAS-2B, read-out: EC50 (50% cell death concentration of H2O2)
Procedure: Cells of the normal airway epithelial cell line BEAS-2B were seeded at a density of 1×10^5/cm^2 on a 96-well plate, and after 24 hours the medium was replaced with 0.5% FBS RPMI 1640 containing EP at final concentrations of 0, 250 and 500 μM. 24 hours after medium replacement the medium was replaced with 0.5% FBS RPMI-1640, and serially diluted H2O2 was administered (n=4). 24 hours after H2O2 administration a cell toxicity test WST-8 assay (Cell Counting Kit-8, Dojindo) was performed. For the data analysis, the 50% cell death concentration EC50 was calculated with GraphPad Prism 5 statistical analysis software.

BEAS-2B [4] = experiment: DNA microarray of H2O2-treated samples and correlational analysis with EP; type: cell-based, human; details: H2O2 125 μM, 6 hours
Procedure: The data of Example 13 were used as the EP gene expression data. Cell preparation and H2O2 administration were performed as in Test 13. Samples that had been treated for 6 hours with H2O2 at a final concentration of 125 μM were used as samples for gene expression analysis by DNA microarray.

HHDPC cells = experiment: WST-8 proliferation test, primary normal human hair dermal papilla cells (HHDPC); details: high concentrations
Procedure: HHDPC cells (Cosmo Bio) were seeded to 1×10^4 cells/cm^2 on a 96-well plate. Complete MSCM medium (500, ScienCell) was used as the medium. After 24 hours, the cells were washed gently with 200 μl per well of PBS, the medium was replaced with 90 μl per well of 0% FBS DMEM with 1 vol % of complete MSCM medium added thereto, and the cells were cultured for 24 hours. After culture, 10 μl per well of EP solution was added, and a proliferation test (WST-8 assay) was performed 6 days after EP administration. The WST-8 assay was performed as in Example 1. The same test was performed using minoxidil, which has a clinical hair growth effect.

BEAS-2B [5] = experiment: Permeability test, 4-kilodalton fluorescent dextran through BEAS-2B cell sheet (Papp); type: cell-based, human; details: Dex 1 μM, with or without EP 1 mM
Procedure: Cells of the established normal human airway epithelial cell line BEAS-2B were seeded to 1×10^5 cells/cm^2 on a cell culture insert (353104, BD Falcon) (FIG. 14). 10% FBS RPMI-1640 was used as the medium. The amount of medium was 200 μl on the insert side and 750 μl on the well side. Beginning the next day, substitution/medium replacement was performed once a day with 1% FBS RPMI-1640 prepared with the following 4 reagent conditions, and transepithelial electrical resistance (TER) was measured with MilliCell (Millipore). • Condition 1: Control • Condition 2: EP 1 mM • Condition 3: Dexamethasone 1 μM (dexamethasone (Dex): positive control substance known to enhance barrier function) • Condition 4: EP 1 mM and Dex 1 μM
7 days after cell seeding a permeability test was performed as follows.
A 4-kilodalton fluorescent dextran molecule (Sigma) was added to the cell culture insert to a concentration of 0.1 mg/ml, 20 μl of the medium on the well side was removed after 1 hour, and the amount of permeating fluorescent dextran was estimated from the fluorescent strength at each concentration. The permeation rate Papp of a substance from the insert side to the well side is normally determined by the following formula.
Papp=(volume of medium on well side/insert area×initial insert concentration)×(altered concentration on well side/elapsed time)

`C[N+]1(C)CCc2cc3c(cc2[C@H]1[C@@H]1OC(=O)c2c1ccc1c2OCO1)OCO3.[Cl-]` [BM, (−)-Bicuculline Methochloride] was tested. Which “inhibition of the proliferative action of EP” value (BEAS-2B [1]) did it give?
Its value is “not inhibited”.

How did the “animal cell proliferation without serum or growth factors” value (BEAS-2B [2]) turn out when `C[N+](C)(C)CCOP(=O)(O)OP(=O)([O-])OC[C@H]1O[C@@H](n2ccc(N)nc2=O)[C@H](O)[C@@H]1O` [CDP-choline] was run?
Its value is “not obtained”.

With `NCCCC(=O)O` [GABA] as the compound, how does the proliferative action (BEAS-2B [1]) read?
Its proliferative action is “neither the GABA-A and GABA-B receptor agonist GABA nor the EP structural analog and GABA-A receptor agonist homotaurine exhibited any statistically significant proliferative action”.

How did the EC50 (BEAS-2B [3]; cells pre-treated with 250 uM EP) turn out when `OO` [H2O2, hydrogen peroxide, reference compound] was run?
Its EC50 is 190 µM.

What about the EC50 (BEAS-2B [3]; cells pre-treated with 500 uM EP) of the same compound?
Its EC50 is 177 µM.

And the EC50 (BEAS-2B [3]; control, no EP pre-treatment, 24 h)?
Its EC50 is 128 µM.

And the “expression of apoptosis-associated genes reduced by EP (30 probes)” value (BEAS-2B [4])?
The value was “generally had their expression increased”.

What about the “expression of cytokines and chemokines” value (BEAS-2B [4]) of the same compound?
Its value is “induced expression of cytokines and chemokines”.

With `Nc1cc(N2CCCCC2)nc(N)[n+]1[O-]` [Minoxidil, minoxidil, reference compound] as the compound, how does the cell toxicity (HHDPC cells) read?
The cell toxicity was “toxic above that range”.

`C[C@@H]1C[C@H]2[C@@H]3CCC4=CC(=O)C=C[C@]4(C)[C@@]3(F)[C@@H](O)C[C@]2(C)[C@@]1(O)C(=O)CO` [dexamethasone, reference compound] was tested. Which “drop in Papp” value (BEAS-2B [5]) did it give?
Its value is “no rise in TER or drop in Papp”.

With `OCCNCCO` [diethanolamine] as the compound, how does the “animal cell proliferation without serum or growth factors” value (BEAS-2B [2]) read?
Its value is “not obtained”.

With `NCCO` [ethanolamine] as the compound, how does the “animal cell proliferation without serum or growth factors” value (BEAS-2B [2]) read?
The value was “not obtained”.

And the proliferative action (BEAS-2B [2]; 0.1% FBS, 72 hours)?
Its proliferative action is “much weaker than that of EP”.

`NCCCS(=O)(=O)O` [homotaurine] was tested. Which proliferative action (BEAS-2B [1]) did it give?
Its proliferative action is “neither the GABA-A and GABA-B receptor agonist GABA nor the EP structural analog and GABA-A receptor agonist homotaurine exhibited any statistically significant proliferative action”.

For `C[N+](C)(C)CCOP(=O)(O)O` [phosphorylcholine], which “animal cell proliferation without serum or growth factors” value (BEAS-2B [2]) is on record?
The value was “not obtained”.
